Assay results from patent US5081121A, “4(1H)-quinolone derivatives” (priority 1988, dated 1992).

Experiments:
left atrial muscle = assay: Test Method 1: enhancement of contracting force of left atrial muscle extirpated from a guinea pig (electrically stimulated at 1 Hz); assay type: cell-based; details: Cavia porcellus, Krebs-Henseleit solution 32° C.; for EC20: read-out: EC20 (molar concentration for enhancing the left atrial muscle contracting force to the level of 20%); for EC50: read-out: EC50 (molar concentration for enhancing the left atrial muscle contracting force to the level of 50%); for EC100: read-out: EC100 (molar concentration for enhancing the left atrial muscle contracting force to the level of 100%)
Procedure: (§1) The drug according to the present invention was evaluated with reference to the physiological activities by means of a method using an atrial muscle extirpated from a guinea pig.
(§2) Male guinea pigs having a body weight of 300-500 g were made swooned by striking his head and were bleeded to death. The heart was extirpated and the right and left atrial muscles were cut off. The tops of each atrial muscle were fixed with cerrefines. The muscle was suspended into an organ-bath in which a Krebs-Henseleit solution (at 32° C.) was filled, and a 95% O2 -5% CO2 gas was flown through the bath. The left atrial muscle was stimulated electrically at a frequency of 1 Hz to stabilize the contracting force of the left atrial muscle. Then, the compounds according to the present invention represented by the general formulae were added to the organ-bath. As for the right atrial muscle, after the pulsation was stabilized, the compounds according to the present invention were added in the organ-bath in the same manner as described above.
(§3) The compounds according to the present invention represented by the aforementioned general formulae enhanced the left atrial muscle contracting force dependent on their concentrations. The drug concentrations for enhancing the left atrial muscle contracting force to the levels of 20%, 50% and 100%, respectively are listed in Table 2. EC20, EC50 and EC100 indicate the molar concentration for enhancing the left atrial muscle contracting force to the levels of 20%, 50% and 100%, respectively. The enhancing rates of the pulsation of the right atrial muscle are also listed within parentheses. The minus values in parentheses indicate that the pulsation of the right atrial muscle is decreased.
(§4) As a control drug, theophylline ([…].

right atrial muscle = assay: Test Method 1: enhancing rate of the pulsation of the right atrial muscle extirpated from a guinea pig; assay type: cell-based; details: minus values: pulsation is decreased
Procedure: as §1, §2, §3, §4

Structure (SMILES) | EC50 (left atrial muscle) | enhancing rate of the pulsation of the right atrial muscle (in parentheses under EC50) (right atrial muscle) | EC20 (left atrial muscle) | EC100 (left atrial muscle) | enhancing rate of the pulsation of the right atrial muscle (in parentheses under EC20) (right atrial muscle) | enhancing rate of the pulsation of the right atrial muscle (in parentheses under EC100) (right atrial muscle)
COc1cc(OCc2ccccc2)cc2c(=O)cc[nH]c12 [Compound 26, 6-benzyloxy-8-methoxy-4(1H)-quinolone] | 63 µM | 5.5% | 6.38 µM | 305 µM | 0.1% | 8.7%
COC(=O)c1cn(C)c2cc(OC)c(OC)cc2c1=O [Compound 32, 6,7-dimethoxy-3-methoxycarbonyl-1-methyl-4(1H)-quinolone] | 85.1 µM | 0.3% | 40.7 µM | 282 µM | 0.1% | 0.4%
CCOC(=O)c1cn(CC)c2c(OC)cc([S+](C)[O-])cc2c1=O (stereo not drawn) [Compound 39, 3-ethoxycarbonyl-1-ethyl-8-methoxy-6-methylsulfinyl-4(1H)-quinolone] | 67.6 µM | -12.1% | 13.5 µM |  | -7.7% | 
COc1ccc(OC)c(/C=C/c2ccc3[nH]ccc(=O)c3c2)c1 [Compound 46, 6-[2-trans-(2,5-dimethoxyphenyl)vinyl]-4(1H)-quinolone] | 162 µM | 3.5% | 45.7 µM |  | -1.0% | 
CCOc1cc2c(=O)c(C(=O)O)cn(CC)c2cc1OC [Compound 86, 3-carboxyl-6-ethoxy-1-ethyl-7-methoxy-4(1H)-quinolone] | 125 µM | 8.5% | 30 µM |  | 1.5% | 
COc1cc2c(=O)ccn(C)c2cc1OC [Compound 13, 6,7-dimethoxy-1-methyl-4(1H)-quinolone] | 88.1 µM | 1.2% | 12.5 µM | 447 µM | 0.1% | 4.0%
CCOC(=O)c1c[nH]c2c(OC)cccc2c1=O [Compound 35, 3-ethoxycarbonyl-8-methoxy-4(1H)-quinolone] | 80 µM | -2.0% | 26 µM | 260 µM | -1.2% | -3.7%
CCOC(=O)c1cn(CC)c2c(OCC)cc(OC)cc2c1=O [Compound 78, 8-ethoxy-3-ethoxycarbonyl-1-ethyl-6-methoxy-4(1H)-quinolone] | 75 µM | -25.0% | 8.41 µM |  | -6.2% | 
CCOC(=O)c1cn(CC)c2ccc(C)cc2c1=O [Compound 33, 3-ethoxycarbonyl-1-ethyl-6-methyl-4(1H)-quinolone] | 76.7 µM | 1.7% | 30 µM | 513 µM | 1.5% | -7.1%
COc1ccc(-c2ccccc2)c2c(=O)c(C(=O)O)c[nH]c12 [Compound 91, 3-carboxyl-8-methoxy-5-phenyl-4(1H)-quinolone] | 119 µM | 16.0% | 13.3 µM | 750 µM | 2.3% | 
COc1c(O)ccc2[nH]ccc(=O)c12 [Compound 2, 6-hydroxy-5-methoxy-4(1H)-quinolone] | 871 µM | 2.2% | 490 µM |  | 0.6% | 

Compounds with a lower EC50 (left atrial muscle), results first:

EC50 (left atrial muscle) | enhancing rate of the pulsation of the right atrial muscle (in parentheses under EC50) (right atrial muscle) | Structure (SMILES) | EC20 (left atrial muscle) | EC100 (left atrial muscle) | enhancing rate of the pulsation of the right atrial muscle (in parentheses under EC20) (right atrial muscle) | enhancing rate of the pulsation of the right atrial muscle (in parentheses under EC100) (right atrial muscle)
60.3 µM |  | C=CCn1c(-c2cccs2)cc(=O)c2cc(OC)c(OCC)cc21 [Compound 116, 1-allyl-7-ethoxy-6-methoxy-2-(2-thienyl)-4(1H)-quinolone] | 15.3 µM |  | -10.0% | 
57.5 µM | -15.0% | CCOC(=O)c1cn(CC)c2c(C)c(C)ccc2c1=O [Compound 81, 7,8-dimethyl-3-ethoxycarbonyl-1-ethyl-4(1H)-quinolone] | 35.5 µM |  | -10.5% | 
53.1 µM | -4.0% | CCOc1cc2c(cc1OC)c(=O)cc(-c1cccnc1)n2CC [Compound 114, 7-ethoxy-1-ethyl-6-methoxy-2-(3-pyridyl)-4(1H)-quinolone] | 6.46 µM | 1000 µM | -1.8% | -1.3%
51.9 µM | -0.5% | COc1ccc(Cn2c(C3CC3)cc(=O)c3cc(OC)c(OC)cc32)cc1 [Compound 104, 2-cyclopropyl-6,7-dimethoxy-1-(4-methoxybenzyl)-4(1H)-quinolone] | 11.5 µM |  | -3.5% | 
39.3 µM | 9.2% | O=C(c1ccccc1)c1cc(Cl)cc2c(=O)cc[nH]c12 [Compound 18, 8-benzoyl-6-chloro-4(1H)-quinolone] | 10 µM | 115 µM | 0.2% | 12.2%
37.6 µM | 6.0% | CCOc1cc2c(cc1OC)c(=O)c(C(=O)O)cn2C [Compound 92, 3-carboxyl-7-ethoxy-6-methoxy-1-methyl-4(1H)-quinolone] | 4.73 µM |  | 1.0% | 
36.3 µM | -16.0% | CCOC(=O)c1cn(CC)c2c(OC)cc(S(C)(=O)=O)cc2c1=O [Compound 40, 3-ethoxycarbonyl-1-ethyl-8-methoxy-6-methylsulfonyl-4(1H)-quinolone] | 4.57 µM |  | -4.5% | 
34.3 µM | 0.5% | C=CCn1c(C2CC2)cc(=O)c2cc(OC)c(OCC)cc21 [Compound 103, 1-allyl-2-cyclopropyl-7-ethoxy-6-methoxy-4(1H)-quinolone] | 3 µM | 162 µM | -2.0% | 1.2%
30 µM | -4.0% | COc1ccc(Cn2ccc(=O)c3cc(OC)c(OC)cc32)cc1 [Compound 17, 6,7-dimethoxy-1-(4-methoxybenzyl)-4(1H)-quinolone] | 4.47 µM |  | -2.1% | 
25.7 µM | 3.6% | CCOC(=O)c1c[nH]c2c(OC)ccc(C)c2c1=O [Compound 36, 3-ethoxycarbonyl-8-methoxy-5-methyl-4(1H)-quinolone] | 3.54 µM | 77.6 µM | 0.0% | 8.9%
7.5 µM | -2.2% | CCOC(=O)c1c[nH]c2c(OC)ccc(-c3ccccc3)c2c1=O [Compound 37, 3-ethoxycarbonyl-8-methoxy-5-phenyl-4(1H)-quinolone] | 1.58 µM | 37.2 µM | -1.3% | -5.0%
